# Assays:
# [1] = system: Super ER; experiment: Estrogen responsive reporter assay in yeast, modified (super) estrogen receptor with VP16 activating domain; type: cell-based, human; conditions: +CuSO4, no E2
# Text: (§1) The mechanism by which steroid receptors enhance transcription is unclear, however, there is a clear correlation between the ability of the receptor to activate transcription and the presence of an acidic activation region in the protein. […] As illustrated in Fig. 9 this was accomplished for the human estrogen receptor by digestion of the yeast expression vector for estrogen, YEpE2 with Notl, filling in the ends with T4 polymerase and religating in the presence of the filled in Rsal - Sall fragment of the VP16 protein. After the receptor is inserted in the proper orientation it produces a chimeric receptor which includes within its reading frame a VP16 activating domain.
# (§2) A comparison of the wild type estrogen receptor and the modified receptor was made in yeast using the estrogen responsive reporters.
# [2] = system: YRpEG3 reporter; experiment: Activity of the YRpEG3 reporter alone (no receptor); type: cell-based, Saccharomyces cerevisiae
# Description: The transcriptional activity of the receptor was assayed under similar conditions to Example 15 except that the cells were grown in glucose (Fig. 1B). In the presence of glucose, the transcriptional activity of GAL4 is completely repressed because the GAL4 protein is incapable of binding to its response element. Under these conditions estrogen receptor activation of the GAL4-ERE can be monitored without interference. […] At all concentrations of receptor the activation of transcription was entirely hormone dependent.
# [3] = system: human estrogen receptor; experiment: Estrogen responsive reporter assay in yeast, wild type estrogen receptor; type: cell-based; conditions: ER
# Text: as §1, §2
# [4] = molecular target: T1, chicken progesterone receptor (Gallus gallus, UniProt P07812); experiment: β-Galactosidase transcription assay in yeast with expression plasmid and reporter YRpP1; type: cell-based
# T1 construct: ubiquitin (N, cleaved yes); expressed in transfected cells
# T1 sequence (P07812 1-786): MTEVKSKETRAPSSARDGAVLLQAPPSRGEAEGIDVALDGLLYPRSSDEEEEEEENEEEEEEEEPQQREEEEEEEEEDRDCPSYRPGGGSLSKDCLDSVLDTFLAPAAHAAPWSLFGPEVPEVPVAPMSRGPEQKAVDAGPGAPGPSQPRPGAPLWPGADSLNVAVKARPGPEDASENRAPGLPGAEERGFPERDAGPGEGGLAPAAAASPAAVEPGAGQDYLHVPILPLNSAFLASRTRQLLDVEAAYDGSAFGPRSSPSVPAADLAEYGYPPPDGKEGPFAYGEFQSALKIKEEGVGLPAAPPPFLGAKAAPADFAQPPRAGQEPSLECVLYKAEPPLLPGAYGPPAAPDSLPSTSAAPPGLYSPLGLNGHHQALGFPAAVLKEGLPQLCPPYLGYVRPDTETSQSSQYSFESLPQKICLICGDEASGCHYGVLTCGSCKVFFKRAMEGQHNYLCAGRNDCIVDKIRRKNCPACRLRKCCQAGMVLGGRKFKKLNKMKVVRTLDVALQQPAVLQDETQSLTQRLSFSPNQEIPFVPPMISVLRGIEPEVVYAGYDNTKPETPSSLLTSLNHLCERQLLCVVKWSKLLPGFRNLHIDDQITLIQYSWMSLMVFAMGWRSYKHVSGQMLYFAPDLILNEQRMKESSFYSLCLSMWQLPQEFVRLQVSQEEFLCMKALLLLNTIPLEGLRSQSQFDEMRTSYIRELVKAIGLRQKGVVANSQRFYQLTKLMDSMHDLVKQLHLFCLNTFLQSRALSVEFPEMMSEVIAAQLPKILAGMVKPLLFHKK
# Description: A reporter YRpP1 containing the progesterone responsive sequence and the β-Galactosidase gene was used to quantitate the transcriptional activity of the chicken progesterone receptor. Yeast containing both the expression and the reporter plasmids was grown overnight in minimal media supplemented with 2% glucose. […] Four sets of tubes were inoculated (a) no additions, (b) +100µM CuSO4, (c) +0.1µM progesterone, and (d) +100µM CuSO4, 0.1µM progesterone. When the cells reached mid-log phase they were harvested by centrifugation. The cells were lysed using glass beads and the cytosol was clarified by centrifugation. Aliquots (1-100µg) of protein were assayed for β-Galactosidase activity according to the method of Miller and expressed as units/mg protein.
# [5] = system: GAL4; experiment: Activation of GAL4/ERE binding site chimera reporters by galactose in BJ3505; type: cell-based, Saccharomyces cerevisiae; conditions: grown in galactose
# Text: It is known that the estrogen receptor binds to and activates gene transcription through a 13 bp palindromic sequence (ERE). Placing ERE upstream of the promoter in a CYC-l-β-gal fusion vector and transforming into Saccharomyces cerevisiae results in a reporter which responded to estrogen in a receptor-dependent manner. To monitor the binding of the estrogen receptor to the ERE sequence in vivo, an interference assay was developed. An oligonucleotide containing a GAL4 (17 mer) recognition sequence and an ERE was constructed such that the two sites would overlap by 1 base. In this way only ER or GAL4 but not both molecules could occupy the same site. This sequence was cloned as a single, double, or triple copy distal to the promoter in a yeast iso-l-cytochrome C reporter (PC3).
# These plasmids were introduced into yeast and assayed for transcriptional activity in the presence of glucose and galactose. The results are shown in Table I and reveal that galactose induced transcription of the reporter gene, and activity increased dramatically as the number of GAL sites increased. When grown in glucose, transcriptional activity was completely repressed.
smiles,measurement,setting,value
O=S(=O)([O-])[O-].[Cu+2] [CuSO4],activity of estrogen responsive reporter,[1],4133 Miller units per milligram of protein
same,direct effects on the activity of the YRpEG3 reporter alone,[2],no direct effects
same,activity of estrogen responsive reporter,"[3]; +CuSO4, no E2",473 Miller units per milligram of protein
same,β-Galactosidase activity,"[4]; +100µM CuSO4, no progesterone",<500 Miller units
same,EC50,"[4]; CUP1 promoter driven receptor expression, other data, read-out: concentration sufficient to activate half maximally this transcription unit",1 µM
"C[C@]12CC[C@@H]3c4ccc(O)cc4CC[C@H]3[C@@H]1CC[C@@H]2O [E2, estradiol]",direct effects on the activity of the YRpEG3 reporter alone,[2],no direct effects
same,activity of estrogen responsive reporter,[3]; +CuSO4+E2,4344 Miller units per milligram of protein
same,activity of estrogen responsive reporter,[3]; +E2,5760 Miller units per milligram of protein
"O=C[C@H](O)[C@@H](O)[C@@H](O)[C@H](O)CO [Galactose, galactose]",TRANSCRIPTIONAL ACTIVITY,"[5]; reporter YRpEG1, 1 binding site",860
same,TRANSCRIPTIONAL ACTIVITY,"[5]; reporter YRpEG2, 2 binding sites","2,350"
same,TRANSCRIPTIONAL ACTIVITY,"[5]; reporter YRpEG3, 3 binding sites","16,500"
"CC(=O)[C@H]1CC[C@H]2[C@@H]3CCC4=CC(=O)CC[C@]4(C)[C@H]3CC[C@]12C [Prog., progesterone, reference compound]",β-Galactosidase activity,"[4]; +0.1µM progesterone, no CuSO4",<500 Miller units
same,β-Galactosidase activity,"[4]; +100µM CuSO4, 0.1µM progesterone","50,000 Miller units"
COc1ccc2c(c1)CCC(c1ccccc1)=C2c1ccc(OCCN2CCCC2)cc1 [nafoxidine],direct effects on the activity of the YRpEG3 reporter alone,[2],no direct effects

# Source: patent EP0752477A2, “Expression vectors that produce steroid receptors, steroid receptor chimera, screening assays for steroid receptors and clinical assays using synthesized receptors and receptor vectors” (BAYLOR COLLEGE OF MEDICINE, priority 1990, dated 1991)
